In patent US9278940B2, “Cyclic amines as bromodomain inhibitors” (Zenith Epigenetics Corp., priority 2012, dated 2016):
Where a name gives a salt, the structure may show the parent alone.

How the values were obtained:
hIL-6 mRNA = assay: Inhibition of hIL-6 mRNA transcription in LPS-stimulated U937 macrophages; format: cell-based, human; parameters: key: Active: Compounds with an IC50 value less than 30 μM are deemed to be active.; Not Active: Compounds with an IC50 value less than 30 μM are deemed to be active; conditions: U937 cells differentiated with PMA, 1 h pretreatment, LPS 3 h
Method in brief: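 U937 cells differentiated to macrophages with 60 ng/mL PMA for 3 days, pretreated 1 h with compound, then stimulated with 1 ug/mL E. coli LPS for 3 h at 37° C. IL-6 mRNA measured by one-step qRT-PCR, Ct normalized to internal control, expressed as fold induction relative to control.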

hApoA-1 mRNA = assay: Up-regulation of hApoA-1 mRNA transcription in Huh7 cells; format: cell-based, human; parameters: key: Active: Compounds with an EC170 value less than 30 μM are deemed to be active.; Not Active: Compounds with an EC170 value less than 30 μM are deemed to be active; conditions: 48 hrs treatment, ApoA-I mRNA
Method in brief: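 Huh7 cells plated 24 h before compound, then treated 48 h; mRNA isolated from lysates and ApoA-I quantified by one-step real-time PCR. Fold induction derived from Ct values relative to the matching DMSO control; EC170 reported as activity measure.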

MV4-11 cells = assay: In vivo efficacy in acute myeloid leukemia xenograft model using MV4-11 cells; parameters: species or system mouse; conditions: athymic nude mice, MV4-11 xenograft, oral 75 mg/kg b.i.d and 120 mg/kg b.i.d, tumor growth inhibition vs vehicle
Procedure: MV4-11 cells (ATCC) were grown under standard cell culture conditions and (NCr) nu/nu fisol strain of female mice age 6-7 weeks were injected 5e^6 cells/animal in 100 μl PBS+100 μl Matrigel in lower left abdominal flank. Approximately by day 18 after MV4-11 cells injection, mice were randomized based on tumor volume (L×W×H)/2) of average ^˜120 mm^3. Mice were dosed orally with compound at 75 mg/kg b.i.d and 120 mg/kg b.i.d in EA006 formulation at 10 mL/kg body weight dose volume. Tumor measurements were taken with electronic micro caliper and body weights measured on alternate days beginning from dosing period. The average tumor volumes, percent Tumor Growth Inhibition (TGI) and % change in body weights were compared relative to Vehicle control animals. The means, statistical analysis and the comparison between groups were calculated using student's t-test in Excel.

[1] = In vivo efficacy in rat collagen induced arthritis; conditions: female Lewis rats, collagen Day 1 and 7, dosed Day 11 to Day 17
Procedure: Rat collagen-induced arthritis is an experimental model of polyarthritis that has been widely used for preclinical testing of numerous anti-arthritic agents. Following administration of collagen, this model establishes a measurable polyarticular inflammation, marked cartilage destruction in association with pannus formation and mild to moderate bone resorption and periosteal bone proliferation. In this model, collagen was administered to female Lewis strain of rats on Day 1 and 7 of study and dosed with compounds from Day 11 to Day 17. Test compounds were evaluated to assess the potential to inhibit the inflammation (including paw swelling), cartilage destruction and bone resorption in arthritic rats, using a model in which the treatment is administered after the disease has been established.

[2] = In vivo efficacy in experimental autoimmune encephalomyelitis (EAE) model of MS; parameters: species or system mouse; conditions: female C57Bl/6 mice, MOG35-55/CFA and pertussis toxin, 28 day preventative model
Text: Experimental autoimmune encephalomyelitis (EAE) is a T-cell-mediated autoimmune disease of the CNS which shares many clinical and histopathological features with human multiple sclerosis (MS). EAE is the most commonly used animal model of MS. […] Cytokines IL-23, IL-6 and IL-17, which are either critical for Th1 and Th17 differentiation or produced by these T cells, play a critical and non-redundant role in EAE development. Therefore, drugs targeting production of these cytokines are likely to have therapeutic potential in treatment of MS.
This study was conducted to assess the potential anti-inflammatory effect of test compounds to inhibit the inflammation and clinical EAE scores of a 28 day preventative mouse model. In this model, EAE was induced by MOG35-55/CFA immunization and pertussis toxin injection in female C57Bl/6 mice.

COc1cc(OC)c2c(=O)[nH]c(-c3cccc(N4CCN(C(C)C)CC4)n3)nc2c1 [Example 17, 2-(6-(4-Isopropylpiperazin-1-yl)pyridin-2-yl)-5,7-dimethoxyquinazolin-4(3H)-one Hydrochloride]
Active: IL-6 activity (IC50 < 30 μM) (hIL-6 mRNA) | ApoA-1 activity (EC170 < 30 μM) (hApoA-1 mRNA) | In vivo activity (MV4-11 cells) | In vivo activity [1] | In vivo activity [2]
